For one test, the target named is T1, KPNA4 ARM Major (Homo sapiens, UniProt O00629).
T1 construct: 60-487; GST (cleaved yes); made in house; host or cells: Escherichia coli BL21-Gold(DE3)
Briefly: FP displacement assay, KPNA4 ARM major pocket. It counts as binding. The conditions noted are these: major pocket probe FITC-MYC 5 nM, 50 mM sodium phosphate pH 7.4, room temperature, at least three technical replicates, read-out: KD values ± SEM. As for the experimental part: (§1) FP experiments were performed as described previously (Kliche et al, [2021]). Shortly, in order to monitor the binding event, FITC‐labelled peptides were used (excitation 495 nm, emission: 535 nm) and the FP signal was recorded in mP on a SpectraMax iD5 Multi‐Mode Microplate Reader (Molecular Devices) by measuring the emitted light in two angels. The measurements were performed at room temperature and prepared in nonbinding black half area 96‐well microplates (Corning®; 50 μl/well). For measuring direct binding, that is saturation curves, a 1:1 dilution series of protein domain (25 μl/well) was generated in 50 mM sodium phosphate buffer pH 7.4 and the measurement performed with 5 nM FITC‐labelled peptide (25 μl/well). The buffer‐corrected values were subsequently plotted with PRISM and fitted to the quadratic equation (Gianni et al, [2005]).
(§2) The 1:1 dilution series in this experiment was performed with the unlabelled peptide in 50 mM sodium phosphate buffer pH 7.4, so that each well‐contained unlabelled peptide (25 μl) at a certain concentration and pre‐formed complex (25 μl). The KD values of this indirectly monitored binding event were calculated as described previously (Nikolovska‐Coleska et al, [2004]). All measurements were at least in technical triplicates as well as biological duplicates when indicated. An amplitude shift between repeat measurements in the displacement experiments was occasionally observed due to variations in the protein preparations. If that was the case, the “active” protein concentration was back‐calculated according to the quadratic equation from the saturation curves performed in parallel. By comparing the active protein concentrations in the complex between different protein preparations, the amplitude was normalised.

Another test deals with T2, KPNA4 ARM minor (Homo sapiens, UniProt O00629).
T2 construct: 60-487; GST (cleaved yes); made in house; host or cells: Escherichia coli BL21-Gold(DE3)
T2 sequence (O00629 60-487): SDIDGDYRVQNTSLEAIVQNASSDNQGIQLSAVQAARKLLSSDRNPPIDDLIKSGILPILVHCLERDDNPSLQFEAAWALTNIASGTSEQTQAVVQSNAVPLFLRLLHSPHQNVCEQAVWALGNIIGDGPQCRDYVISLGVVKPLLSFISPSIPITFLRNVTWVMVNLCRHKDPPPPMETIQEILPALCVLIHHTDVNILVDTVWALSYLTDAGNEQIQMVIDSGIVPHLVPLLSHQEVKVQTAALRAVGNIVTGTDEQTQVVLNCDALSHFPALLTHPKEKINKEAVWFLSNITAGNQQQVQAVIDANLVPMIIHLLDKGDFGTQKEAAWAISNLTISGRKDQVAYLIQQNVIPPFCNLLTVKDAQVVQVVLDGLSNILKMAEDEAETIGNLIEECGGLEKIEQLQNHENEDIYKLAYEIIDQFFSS
Briefly: FP displacement assay, KPNA4 ARM minor pocket. It counts as binding. The conditions noted are these: minor pocket probe FITC-NCOR2 5 nM, 50 mM sodium phosphate pH 7.4, room temperature, at least three technical replicates, read-out: KD values ± SEM. As for the experimental part: as §1, §2

In another test the target is T3, TSG101 UEV (Homo sapiens, UniProt Q99816).
T3 construct: TSG101_UEV__Q99816_1_145; made in house; host or cells: Escherichia coli BL21-Gold(DE3)
T3 sequence (Q99816 1-145): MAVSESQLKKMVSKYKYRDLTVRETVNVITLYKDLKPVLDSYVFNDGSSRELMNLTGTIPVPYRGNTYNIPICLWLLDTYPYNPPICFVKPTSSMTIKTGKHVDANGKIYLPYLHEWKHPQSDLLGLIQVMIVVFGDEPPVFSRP
In words: FP displacement assay, TSG101 UEV. It counts as binding. As to conditions: for IC50: Fig 4B, TSG101 UEV, technical triplicates, read-out: IC50 values of displacement curves, with SEM; for Kd: read-out: KD values ± SEM. As for the experimental part:
as §1, §2

The subject of another test is bait protein domains. Briefly: Phosphomimetic ProP-PD selection against the PM_HD2 library (NGS counts, confidence level, PES), any bait. The test is classed as binding, human. Also on record: Confidence / Max confidence: scale not given here. The conditions noted are these: bait ABL1_SH3__P00519_60_121; for Confidence / Promiscuity / Specificity: selection results by peptide; for Has possible phosphoregulated psite? (PES +2/-2, p<0.01) / Max confidence: hit given as wt version. As to the method: Selections using the PM_HD2 phage library were performed as described previously with minor modification to the original protocol. The corresponding tag protein (either GST or MBP) was first used during negative selections. Selections were run for 4 days. • Bait and tag proteins (10–15 μg in 100 μl PBS) were immobilised in 96‐well MaxiSorb plate (NUNC) o.n. at 4°C. • Escherichia coli OmniMax bacteria were grown in 2YT medium supplemented with tetracycline (100 μg/ml) at 37°C and 200 rpm. • Plates with immobilised bait/tag proteins were blocked with 0.5% BSA in PBS for 1 h at 4°C. • Phage library (10 μl/well) was prepared by diluting 10× with PBS and adding one‐fourth of the volume of PEG/NaCl. For phage precipitation, prepared library was incubated for 10 min on ice followed by centrifugation for 10 min at 10,000 × g at 4°C. Phages were resuspended in 0.5% BSA, 0.05% Tween in PBS. • Plates with tag proteins were washed 4× with 0.05% Tween in PBS, and naïve phage library was added to each well (100 μl/well) and the plates incubated for 1 h at 4°C. • Plates with bait protein were washed 4× with 0.05% Tween in PBS, and nonbound phages were transferred from the tag protein plate and the plates incubated for 1 h at 4°C. • Plates were again washed 5× with 0.05% Tween in PBS, and bound phages were eluted with log‐phase OmniMax bacteria (100 μl/well) by incubating for 30 min at 37°C at 200 rpm. • M13K07 helper phage (10^12 cfu/ml) was added to each well and the plates incubated for 45 min at 37°C at 200 rpm. • Amplification took place o.n. by adding the eluted phages to 1.1 ml 2YT media supplemented with kanamycin (25 μg/ml), carbenicillin (50 μg/ml) and 0.3 μM IPTG in a 96‐deep‐well plate and incubating o.n. at 37°C at 200 rpm. • Bacteria were pelleted by centrifugation for 15 min at 1,700 × g at 4°C. The phage supernatant was pH‐adjusted by the addition of 10× PBS and remaining bacteria heat‐inactivated by incubating for 10 min at 60°C. Selections were repeated as described from (5).
Based on the results from phage pool ELISAs, samples from selection Day 3 and 4 were selected for NGS, as described previously (Benz et al, [2022]). • Peptide coding regions were amplified and dual‐barcoded by PCR. 5 μl of the enriched phage pools (50 μl reactions) and a high‐fidelity phusion polymerase (Roche) were used for the PCR reaction. Amplification was confirmed by running the PCR product on 2% agarose gel with a 50 bp ladder. • PCR products (25 μl) were purified with 25 μl of Mag‐bind Total Pure NGS beads and normalised in the same step by taking 10 μl of each reaction after resuspension (Qiagen Elution buffer: 10 mM Tris‐Cl and 0.1 mM EDTA (pH 8.5)) from the beads. • The samples were cleaned up with a PCR purification kit (Qiagen) and subsequently run on a 2% agarose gel, and bands of the correct size (ca. 200 bp) were purified with the QIAquick Gel extraction Kit (Qiagen). From the columns, samples were eluted with 30 μl TE (10 mM Tris–HCl, 1 mM EDTA. pH 7.5) buffer and quantified with Quant‐iT PicoGreen dsDNA Assay Kit. • Samples were sequenced on MiSeq (MSC 2.5.0.5/RTA 1.18.54) with a 151 nt (Read1) setup using “Version3” chemistry. The Bcl to FastQ conversion was performed using bcl2fastq_v2.20.0.422 from the CASAVA software suite.
The processing of sequencing data was performed as described in Ali et al ([2020]). In brief: Pooled results from ~500 selection experiments were demultiplexed by identifying unique combinations of 5′ and 3′ barcodes, sequences with an average quality score of 20 or more were conserved and their adaptors were trimmed, and DNA sequences translated using in‐house custom Python scripts. A table for each experiment was built containing peptide sequences associated with their sequencing counts. […]

The mark [1] stands for this setting: probe FITC-HIV2_Gag 5 nM, 50 mM sodium phosphate pH 7.4, room temperature, at least three technical replicates.

This note sets out measurements from paper PMC10333884, “Large‐scale phosphomimetic screening identifies phospho‐modulated motif‐based protein interactions” (Molecular Systems Biology, 2023).

Non-standard residues stand in square brackets, D forms with d. Residues, ends and D or L forms follow the SMILES beside them. pT = C[C@@H](OP(=O)(O)O)[C@H](N)C(=O)O; pS = N[C@@H](COP(=O)(O)O)C(=O)O

T1 sequence (O00629 60-487): as the sequence (O00629 60-487) above

As to `CC(=O)NCC(=O)N[C@@H](C)C(=O)N[C@@H](COP(=O)(O)O)C(=O)N1CCC[C@H]1C(=O)N[C@@H](C)C(=O)N[C@@H](CC(C)C)C(=O)N[C@@H](CCCCN)C(=O)N[C@@H](CCCNC(=N)N)C(=O)N[C@@H](CO)C(=O)N[C@@H](Cc1c[nH]cn1)C(=O)N[C@@H](CO)C(=O)N[C@@H](CC(=O)O)C(=O)N[C@@H](CO)C(=O)N[C@@H](Cc1ccc(O)cc1)C(N)=O` [CDC25A114–125 pS] (Ac-GA[pS]PALKRSHSDSY-NH2), the values for the dissociation constant (Kd) at KPNA4 ARM Major and at KPNA4 ARM minor were 0.63 ± 0.04 µM and 2.8 ± 0.4 µM, respectively.
`CSCC[C@H](NC(=O)[C@@H]1CCCN1C(=O)[C@H](COP(=O)(O)O)NC(=O)[C@H](CC(C)C)NC(=O)[C@@H]1CCCN1C(=O)[C@H](C)NC(=O)[C@@H](NC(=O)[C@@H]1CCCN1C(=O)[C@H](CO)NC(=O)[C@H](CO)NC(=O)[C@H](C)NC(=O)CNC(=O)[C@H](CC(N)=O)NC(=O)[C@H](Cc1ccc(O)cc1)NC(C)=O)[C@@H](C)O)C(=O)N[C@@H](CO)C(=O)N1CCC[C@H]1C(N)=O` [GJA1_269–283 pS] (Ac-YNGASSPTAPL[pS]PMSP-NH2): on TSG101 UEV, the IC50 (usually the concentration at which inhibition is half-maximal) worked out at 420 ± 29 µM. Moreover, at TSG101 UEV (setting [1]), the Kd – broadly, the equilibrium constant for the complex coming apart – came out at 209 ± 8 µM.
`CSCC[C@H](NC(=O)[C@@H]1CCCN1C(=O)[C@H](CO)NC(=O)[C@H](CC(C)C)NC(=O)[C@@H]1CCCN1C(=O)[C@H](C)NC(=O)[C@@H](NC(=O)[C@@H]1CCCN1C(=O)[C@H](CO)NC(=O)[C@H](CO)NC(=O)[C@H](C)NC(=O)CNC(=O)[C@H](CC(N)=O)NC(=O)[C@H](Cc1ccc(O)cc1)NC(C)=O)[C@@H](C)O)C(=O)N[C@@H](CO)C(=O)N1CCC[C@H]1C(N)=O` [GJA1_269–283 wt] (Ac-YNGASSPTAPLSPMSP-NH2): the dissociation constant Kd on TSG101 UEV (setting [1]) was 232 ± 16 µM.
For the molecule `CC[C@H](C)[C@H](NC(=O)[C@H](CO)NC(=O)[C@H](CCC(N)=O)NC(C)=O)C(=O)N[C@@H](C)C(=O)N[C@@H](CCCNC(=N)N)C(=O)N[C@@H](CCC(=O)O)C(=O)N1CCC[C@H]1C(=O)N[C@@H](CO)C(=O)N[C@@H](C)C(=O)N1CCC[C@H]1C(=O)N[C@@H](CO)C(=O)N[C@H](C(=O)N1CCC[C@H]1C(=O)N[C@H](C(=O)N1CCC[C@H]1C(=O)N[C@@H](Cc1ccc(O)cc1)C(N)=O)[C@@H](C)O)[C@@H](C)CC` [PDCD6IP711–725 wt] (Ac-QSIAREPSAPSIPTPY-NH2), the IC50 at TSG101 UEV stood at 34 ± 10 µM. Further, on TSG101 UEV (setting [1]), the Kd was 16 ± 3 µM.
In the same order, the values of `CC(=O)N[C@@H](Cc1c[nH]cn1)C(=O)N[C@@H](CO)C(=O)NCC(=O)N[C@@H](CC(N)=O)C(=O)N[C@H](C(=O)N[C@H](C(=O)N1CCC[C@H]1C(=O)N[C@H](C(=O)N[C@@H](C)C(=O)N1CCC[C@H]1C(=O)N1CCC[C@H]1C(=O)N[C@@H](Cc1ccc(O)cc1)C(=O)N[C@@H](CC(C)C)C(=O)N[C@@H](CCC(N)=O)C(=O)N[C@@H](CCC(=O)O)C(=O)N[C@@H](CO)C(N)=O)[C@@H](C)O)[C@@H](C)OP(=O)(O)O)C(C)C` [PIP4P2_17–32 pS] (Ac-HSGNV[pT]PTAPPYLQES-NH2) are 34 ± 10 µM and 16 ± 3 µM.
As for `CC(=O)N[C@@H](Cc1c[nH]cn1)C(=O)N[C@@H](CO)C(=O)NCC(=O)N[C@@H](CC(N)=O)C(=O)N[C@H](C(=O)N[C@H](C(=O)N1CCC[C@H]1C(=O)N[C@H](C(=O)N[C@@H](C)C(=O)N1CCC[C@H]1C(=O)N1CCC[C@H]1C(=O)N[C@@H](Cc1ccc(O)cc1)C(=O)N[C@@H](CC(C)C)C(=O)N[C@@H](CCC(N)=O)C(=O)N[C@@H](CCC(=O)O)C(=O)N[C@@H](CO)C(N)=O)[C@@H](C)O)[C@@H](C)O)C(C)C` [PIP4P2_17–32 wt] (Ac-HSGNVTPTAPPYLQES-NH2), the Kd on TSG101 UEV (setting [1]) is 14 ± 1 µM.
Turning to DAPPHYPPPSTAAAEP, in the test with bait protein domains, the Confidence turned out to be 3, the Promiscuity came out at 4 and the Specificity worked out at 0.8807.
For DAPPHYPPPSTAAASP [listing 1 of 2 here], in the test on bait protein domains, the “Has possible phosphoregulated psite? (PES +2/-2, p<0.01)” value was “yes” and the Max confidence stood at 3.
As to DAPPHYPPPSTAAASP [listing 2 of 2 here], in the test on bait protein domains, the Confidence came out at 2, the Promiscuity amounted to 3 and the Specificity was 0.7461.
On to “H3COC-QSIAREPS(pS/E)APSIPTPY-NH2 [PDCD6IP711–725 pS, phosphorylated PDCD6IP 711-725 peptide]”, for which, at TSG101 UEV (setting [1]), the “KD values ± SEM” value was “n.b”.
As to LTYPQYSPPQPRPGVI, in the test on bait protein domains, the “Has possible phosphoregulated psite? (PES +2/-2, p<0.01)” value was “yes” and the Max confidence came out at 4.
For the molecule PATSPPKEPPQLEALQ, in the test with bait protein domains, the Confidence stood at 2, the Promiscuity worked out at 2 and the Specificity is given as 0.9898.
For the molecule PATSPPKTPPQLEALQ [listing 1 of 2 here], in the test on bait protein domains, the “Has possible phosphoregulated psite? (PES +2/-2, p<0.01)” value is “yes” and the Max confidence is given as 3.
As to PATSPPKTPPQLEALQ [listing 2 of 2 here], in the test on bait protein domains, the Confidence stood at 3, the Promiscuity turned out to be 3 and the Specificity was determined as 0.9995.
Consider PPFSPPPSPRGEVERG, for which, in the test with bait protein domains, the “Has possible phosphoregulated psite? (PES +2/-2, p<0.01)” value is “yes” and the Max confidence turned out to be 3.
PSYSPPDTSPANRSFV: in the test on bait protein domains, the Confidence came to 2, the Promiscuity was 1 and the Specificity stood at 1.
Take SPPRPPPPPPLLGTVS: in the test with bait protein domains, the “Has possible phosphoregulated psite? (PES +2/-2, p<0.01)” value was “yes” and the Max confidence was 3.
